Counter-ions that a name gives are not always drawn. Like-named read-outs stand apart in the source and are kept apart here.
Assays:
DOP-R2 = DOP-R2 (Rattus norvegicus, UniProt P33533); assay: Deltorphin II-stimulated [35S]GTPγS binding in rat midbrain membranes; type: biochemical; settings: Mean (± SEM) EC50 for Midbrain Opioid Stimulation, ethanol-trained rats
DOP-R1 [1] = target: T1, DOP-R1 (Rattus norvegicus, UniProt P33533); assay: Inhibition of TAN67-; type: biochemical
rats [2] = settings: 5 mg/kg I.P., ref Nielsen et al., 2008; cited from earlier work
KOP-R = settings: in vitro, ref Wells et al., 2001, Xu et al.; cited from earlier work
rats [3] = settings: elevated plus maze test in rats; ref Nielsen et al., 2008; cited from earlier work
MOP-R [4] = settings: in vitro, ref Wells et al., 2001, Xu et al.; cited from earlier work
DOP-R [5] = settings: ref Ananthan et al., 1999, cited from earlier work
Long-Evans rats = assay: Yohimbine stress-induced reinstatement of 10% ethanol seeking
corticosterone (CORT) = assay: Plasma corticosterone measurement; type: in vivo, rat; settings: SoRI-9409 5 mg/kg I.P. prior to yohimbine 2 mg/kg I.P.; P > 0.05
DOP-R [6] = settings: brain membranes of high-ethanol consuming rats; ref Nielsen et al., 2008; cited from earlier work
DOP-R [7] = settings: in vitro, ref Wells et al., 2001, Xu et al.; cited from earlier work
MOP-R [8] = settings: ref Ananthan et al., 1999, cited from earlier work
DOP-R1 [9] = target: T1, DOP-R1; assay: TAN67-stimulated [35S]GTPγS binding in rat brain membranes; type: biochemical; settings: for EC50: ethanol-trained rats
[10] = read-out: IC50, inhibition of TAN67-stimulated (10 μmol/L) [35S]GTPγS-binding, midbrain membranes, ethanol-trained rats given SoRI-9409-vehicle prior to yohimbine (2 mg/kg I.P.)

DOP-R2, sequence (P33533 whole entry): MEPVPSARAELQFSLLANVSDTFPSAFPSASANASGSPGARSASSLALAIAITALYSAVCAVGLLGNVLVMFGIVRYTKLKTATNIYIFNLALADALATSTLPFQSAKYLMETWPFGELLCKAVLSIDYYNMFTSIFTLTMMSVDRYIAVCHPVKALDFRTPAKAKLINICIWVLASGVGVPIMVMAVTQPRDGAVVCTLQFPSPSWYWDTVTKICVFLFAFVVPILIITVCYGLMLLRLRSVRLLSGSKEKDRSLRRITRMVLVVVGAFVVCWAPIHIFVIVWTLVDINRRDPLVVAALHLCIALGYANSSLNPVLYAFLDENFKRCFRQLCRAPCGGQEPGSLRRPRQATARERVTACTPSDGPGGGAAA
T1 sequence (P33533 whole entry): as above

CC(C)[C@H](NC(=O)[C@H](CCC(=O)O)NC(=O)[C@H](Cc1ccccc1)NC(=O)[C@@H](C)NC(=O)[C@@H](N)Cc1ccc(O)cc1)C(=O)N[C@H](C(=O)NCC(N)=O)C(C)C [Deltorphin II, [D-Ala^2]-Deltorphin II]
EC50 (DOP-R2; SoRI-9409 (5 mg/kg I.P.)/Yohimbine (2 mg/kg I.P.)): 22 ± 4 µM | EC50 (DOP-R2; SoRI-9409 (5 mg/kg I.P.)/Yohimbine-vehicle): > 100 µM | EC50 (DOP-R2; SoRI-9409-vehicle/Yohimbine (2 mg/kg I.P.)): 27 ± 2.9 µM | EC50 (DOP-R2; SoRI-9409-vehicle/Yohimbine-vehicle): > 100 µM

Oc1ccc2c3c1O[C@H]1c4[nH]c5ccccc5c4C[C@@]4(O)[C@@H](C2)N(CC2CC2)CC[C@]314 [naltrindole, naltrindole hydrochloride]
IC50 (DOP-R1 [1]): 0.046 ± 0.0038 µM

Oc1ccc2c3c1O[C@H]1c4ncc(-c5ccc(Cl)cc5)cc4C[C@@]4(O)[C@@H](C2)N(CC2CC2)CC[C@]314 [SoRI-9409, 5′-(4-Chlorophenyl)-17-(cyclopropylmethyl)-6,7-didehydro-3,14-dihydroxy-4,5-alpha-epoxypyrido[2′,3′:6,7] morphinan]
effect on ethanol consumption (rats [2]): selective and long-lasting reductions in ethanol consumption | agonist activity at KOP-R (KOP-R): no agonist activity | antagonist activity at the KOP-R (KOP-R): weak antagonist activity | anxiogenic or anxiolytic effects (rats [3]): does not produce anxiogenic or anxiolytic effects | agonist activity at MOP-R (MOP-R [4]): no agonist activity | antagonist activity at the MOP-R (MOP-R [4]): weak antagonist activity | higher binding affinity at the DOP-R in comparison to naltrexone (DOP-R [5]; compared to naltrexone): approximately 20 fold | Ki (DOP-R [5]; read-out: Ki, binding affinity at the DOP-R): 0.0022 ± 0.0002 µM | Inactive lever presses (Long-Evans rats; SoRI-9409 1 mg/kg, Vehicle group (yohimbine-vehicle)): 0.8 ± 0.4 | Inactive lever presses (Long-Evans rats; SoRI-9409 1 mg/kg, Yohimbine group (2 mg/kg I.P.)): 1.7 ± 0.5 | Inactive lever presses (Long-Evans rats; SoRI-9409 2.5 mg/kg, Vehicle group (yohimbine-vehicle)): 0.3 ± 0.3 | Inactive lever presses (Long-Evans rats; SoRI-9409 2.5 mg/kg, Yohimbine group (2 mg/kg I.P.)): 1.0 ± 0.4 | Inactive lever presses (Long-Evans rats; SoRI-9409 5 mg/kg, Vehicle group (yohimbine-vehicle)): 0.2 ± 0.1 | Inactive lever presses (Long-Evans rats; SoRI-9409 5 mg/kg, Yohimbine group (2 mg/kg I.P.)): 0.6 ± 0.4 | effect on responding in rats which did not receive yohimbine (Long-Evans rats; SoRI-9409 1-5 mg/kg I.P., yohimbine-vehicle only, P > 0.05): did not affect responding | Plasma CORT levels of SoRI-9409/yohimbine treated rats vs SoRI-9409-vehicle/yohimbine treated rats (corticosterone (CORT)): not different | inhibition of DOP-R-mediated [35S]GTPγS binding (DOP-R [6]): potently inhibits | agonist activity at DOP-R (DOP-R [7]): no agonist activity | antagonist activity at the DOP-R (DOP-R [7]): potent antagonist activity | IC50 (DOP-R1 [1]; [10]): 0.022 ± 0.0035 µM | reduced binding affinity for the MOP-R in comparison to naltrexone (MOP-R [8]; compared to naltrexone): approximately 20 fold | Ki (MOP-R [8]; read-out: Ki, binding affinity for the MOP-R): 0.051 ± 0.008 µM

Br.Br.CN1CC[C@]2(c3cccc(O)c3)Cc3nc4ccccc4cc3C[C@H]2C1 [TAN67, SB 205607 dihydrobromide]
higher TAN67-mediated DOP-R1 activity in yohimbine-treated rats compared to vehicle-treated rats (DOP-R1 [9]; midbrain membranes, from Table 2 EC50 values): > 700 fold | EC50 (DOP-R1 [9]; read-out: Mean (± SEM) EC50 for Midbrain Opioid Stimulation, midbrain membranes, SoRI-9409 (5 mg/kg I.P.)/Yohimbine (2 mg/kg I.P.)): 5.2 ± 0.3 µM | EC50 (DOP-R1 [9]; read-out: Mean (± SEM) EC50 for Midbrain Opioid Stimulation, midbrain membranes, SoRI-9409 (5 mg/kg I.P.)/Yohimbine-vehicle): > 100 µM | EC50 (DOP-R1 [9]; read-out: Mean (± SEM) EC50 for Midbrain Opioid Stimulation, midbrain membranes, SoRI-9409-vehicle/Yohimbine (2 mg/kg I.P.)): 0.14 ± 0.04 µM | EC50 (DOP-R1 [9]; read-out: Mean (± SEM) EC50 for Midbrain Opioid Stimulation, midbrain membranes, SoRI-9409-vehicle/Yohimbine-vehicle): > 100 µM | EC50 (DOP-R1 [9]; read-out: Mean (± SEM) EC50 for TAN67 Stimulation, Striatum, striatal membranes, SoRI-9409 (5 mg/kg I.P.)/Yohimbine (2 mg/kg I.P.)): > 100 µM | EC50 (DOP-R1 [9]; read-out: Mean (± SEM) EC50 for TAN67 Stimulation, Striatum, striatal membranes, SoRI-9409 (5 mg/kg I.P.)/Yohimbine-vehicle): > 100 µM | EC50 (DOP-R1 [9]; read-out: Mean (± SEM) EC50 for TAN67 Stimulation, Striatum, striatal membranes, SoRI-9409-vehicle/Yohimbine (2 mg/kg I.P.)): > 100 µM | EC50 (DOP-R1 [9]; read-out: Mean (± SEM) EC50 for TAN67 Stimulation, Striatum, striatal membranes, SoRI-9409-vehicle/Yohimbine-vehicle): > 100 µM

O=C1/C(=C/c2ccccc2)C[C@@]2(O)[C@H]3Cc4ccc(O)c5c4[C@@]2(CCN3CC2CC2)[C@H]1O5 [BNTX, 7-benzylidenenaltrexone maleate salt hydrate]
IC50 (DOP-R1 [1]; [10]): 0.037 ± 0.0048 µM

COC(=O)[C@@H]1[C@H]2C[C@H]3c4[nH]c5ccccc5c4CCN3C[C@@H]2CC[C@@H]1O [Yohimbine, reference compound]
active lever presses (30 min) (Long-Evans rats; SoRI-9409-vehicle prior to yohimbine 2 mg/kg I.P., ethanol-extinguished rats, vehicle/vehicle 10.9 ± 1.8): 48.0 ± 7.0 presses | Inactive lever presses (Long-Evans rats; SoRI-9409-vehicle, Yohimbine group (2 mg/kg I.P.)): 2.1 ± 0.7
